From PMC7910608, “Tuning flavin environment to detect and control light-induced conformational switching in Drosophila cryptochrome” (Communications Biology, 2021)

Legend:
Format in all cases: binding
dCRY; dCRY(WT)-SORTC-SL [1] = molecular target: T1, dCRY; dCRY(WT)-SORTC-SL (Drosophila melanogaster, UniProt O77059); assay: X-ray crystal structure, […] A; also UV-vis and ENDOR; settings: dark state; crystals at pH 9; magnesium
T1 construct: gene cry; full length, N-terminal twin-Strep tag, C-terminal sort-tag (LPGTG) ligated to GGGGC-nitroxide (LPGTGGGGC); E. coli CmpX13
T1 sequence (O77059 1-539): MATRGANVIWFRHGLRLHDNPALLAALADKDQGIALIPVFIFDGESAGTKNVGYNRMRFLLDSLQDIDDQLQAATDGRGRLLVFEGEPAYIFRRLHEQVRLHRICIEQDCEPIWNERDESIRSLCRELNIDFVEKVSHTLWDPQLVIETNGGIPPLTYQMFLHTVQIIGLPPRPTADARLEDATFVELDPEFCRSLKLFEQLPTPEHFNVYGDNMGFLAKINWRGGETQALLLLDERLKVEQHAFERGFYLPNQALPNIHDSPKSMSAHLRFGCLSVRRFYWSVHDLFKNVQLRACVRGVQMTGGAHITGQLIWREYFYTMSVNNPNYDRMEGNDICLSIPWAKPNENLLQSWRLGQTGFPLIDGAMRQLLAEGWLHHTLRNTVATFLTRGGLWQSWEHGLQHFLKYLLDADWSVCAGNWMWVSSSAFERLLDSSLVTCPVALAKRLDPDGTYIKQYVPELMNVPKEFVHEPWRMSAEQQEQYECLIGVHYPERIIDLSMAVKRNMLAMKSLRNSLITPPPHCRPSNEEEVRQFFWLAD

dCRY; dCRY(WT)-SORTC-SL [2] = molecular target: T2, dCRY; dCRY(WT)-SORTC-SL (Drosophila melanogaster, UniProt O77059, H378N); assay: cw-ESR, UV-vis and 4P-DEER of bound flavin after blue light; settings: pH 8; anionic semiquinone formed in light
T2 construct: gene cry; full length, N-terminal twin-Strep tag, C-terminal sort-tag (LPGTG) ligated to GGGGC-nitroxide (LPGTGGGGC); E. coli CmpX13
T2 sequence (O77059 1-539 H378N): as the sequence (O77059 1-539) above, with H378N counted along it

dCRY; dCRY(WT)-SORTC-SL [3] = molecular target: T3, dCRY; dCRY(WT)-SORTC-SL (Drosophila melanogaster, UniProt O77059, H378R/L405E/C416N); assay: as above; settings: pH 8; neutral semiquinone formed in light
T3 construct: gene cry; full length, N-terminal twin-Strep tag, C-terminal sort-tag (LPGTG) ligated to GGGGC-nitroxide (LPGTGGGGC); E. coli CmpX13
T3 sequence (O77059 1-539 H378R/L405E/C416N): as the sequence (O77059 1-539) above, with H378R, L405E, C416N counted along it

dCRY; dCRY(WT)-SORTC-SL [4] = molecular target: T4, dCRY; dCRY(WT)-SORTC-SL (Drosophila melanogaster, UniProt O77059, H378K); assay: as above; settings: pH 8; anionic semiquinone formed in light
T4 construct: gene cry; full length, N-terminal twin-Strep tag, C-terminal sort-tag (LPGTG) ligated to GGGGC-nitroxide (LPGTGGGGC); E. coli CmpX13
T4 sequence (O77059 1-539 H378K): as the sequence (O77059 1-539) above, with H378K counted along it

dCRY; dCRY(WT)-SORTC-SL [5] = molecular target: T5, dCRY; dCRY(WT)-SORTC-SL (Drosophila melanogaster, UniProt O77059, H378K/L405E/C416N); assay: as above; settings: pH 8; neutral semiquinone formed in light
T5 construct: gene cry; full length, N-terminal twin-Strep tag, C-terminal sort-tag (LPGTG) ligated to GGGGC-nitroxide (LPGTGGGGC); E. coli CmpX13
T5 sequence (O77059 1-539 H378K/L405E/C416N): as the sequence (O77059 1-539) above, with H378K, L405E, C416N counted along it

dCRY; dCRY(WT)-SORTC-SL [6] = molecular target: T6, dCRY; dCRY(WT)-SORTC-SL (Drosophila melanogaster, UniProt O77059, L405E/C416N); assay: UV-vis, ENDOR and cw-ESR of bound flavin, blue-light photoreduction; settings: pH 8; neutral semiquinone formed in light
T6 construct: gene cry; full length, N-terminal twin-Strep tag, C-terminal sort-tag (LPGTG) ligated to GGGGC-nitroxide (LPGTGGGGC); E. coli CmpX13
T6 sequence (O77059 1-539 L405E/C416N): as the sequence (O77059 1-539) above, with L405E, C416N counted along it

dCRY; dCRY(WT)-SORTC-SL [7] = molecular target: T7, dCRY; dCRY(WT)-SORTC-SL (Drosophila melanogaster, UniProt O77059, H378N/L405E/C416N); assay: cw-ESR, UV-vis and 4P-DEER of bound flavin after blue light; settings: pH 8; neutral semiquinone formed in light
T7 construct: gene cry; full length, N-terminal twin-Strep tag, C-terminal sort-tag (LPGTG) ligated to GGGGC-nitroxide (LPGTGGGGC); E. coli CmpX13
T7 sequence (O77059 1-539 H378N/L405E/C416N): as the sequence (O77059 1-539) above, with H378N, L405E, C416N counted along it

dCRY; dCRY(WT)-SORTC-SL [8] = molecular target: T8, dCRY; dCRY(WT)-SORTC-SL (Drosophila melanogaster, UniProt O77059, H378R); assay: as above; settings: pH 8; anionic semiquinone formed in light
T8 construct: gene cry; full length, N-terminal twin-Strep tag, C-terminal sort-tag (LPGTG) ligated to GGGGC-nitroxide (LPGTGGGGC); E. coli CmpX13
T8 sequence (O77059 1-539 H378R): as the sequence (O77059 1-539) above, with H378R counted along it

## Cc1cc2nc3c(=O)[nH]c(=O)nc-3n(C[C@H](O)[C@H](O)[C@H](O)COP(=O)(O)OP(=O)(O)OC[C@H]3O[C@@H](n4cnc5c(N)ncnc54)[C@H](O)[C@@H]3O)c2cc1C [FAD]
dCRY; dCRY(WT)-SORTC-SL [1]
  X-ray crystal structure, 2.58 A; also UV-vis and ENDOR: The crystal structure of dCRY-WT-SORTC-SL in the dark state shows that the active site FAD
dCRY; dCRY(WT)-SORTC-SL [2]
  cw-ESR, UV-vis and 4P-DEER of bound flavin after blue light: H378 substitutions (H378K/N/R) led to ASQ formation
dCRY; dCRY(WT)-SORTC-SL [3]
  cw-ESR, UV-vis and 4P-DEER of bound flavin after blue light: triple substitutions (H378K/N/R, L405E, and C416N) led to NSQ formation
dCRY; dCRY(WT)-SORTC-SL [4]
  cw-ESR, UV-vis and 4P-DEER of bound flavin after blue light: H378 substitutions (H378K/N/R) led to ASQ formation
dCRY; dCRY(WT)-SORTC-SL [5]
  cw-ESR, UV-vis and 4P-DEER of bound flavin after blue light: triple substitutions (H378K/N/R, L405E, and C416N) led to NSQ formation
dCRY; dCRY(WT)-SORTC-SL [6]
  UV-vis, ENDOR and cw-ESR of bound flavin, blue-light photoreduction: Both WT dCRY and L405E/C416N show characteristic absorption bands of oxidized FAD in the dark
dCRY; dCRY(WT)-SORTC-SL [7]
  cw-ESR, UV-vis and 4P-DEER of bound flavin after blue light: triple substitutions (H378K/N/R, L405E, and C416N) led to NSQ formation
dCRY; dCRY(WT)-SORTC-SL [8]
  cw-ESR, UV-vis and 4P-DEER of bound flavin after blue light: H378 substitutions (H378K/N/R) led to ASQ formation
